# Reference: US20140296337A1, “CNS MODULATORS” (BTG International Limited, priority 2004, published 2014)
# What was measured:
# [1] = test system: electrical power of four rat brain areas (frontal cortex, hippocampus, striatum, reticular formation); assay: Tele-Stereo-EEG: continuous recording of intracerebral field potentials in the freely moving rat; type: in vivo
# Description: Analysis of brain field potentials (“Tele-Stereo-EEG”) has been proven to be a very sensitive tool for the characterization of drug effects on the central nervous system (Dimpfel et al., 1986). After administration of a centrally active drug, quantitative changes in the brain field potentials can be considered as a characteristic fingerprint of that particular drug. “Fingerprints” of more than 100 compounds have been obtained including 8 established drug categories, e.g. analgesics, antidepressants, neuroleptics, stimulants, tranquilizers, sedatives and narcotics. Different dosages of the same drug cause quantitative changes in electrical power. […] Direct comparison with specific reference drugs, or by discriminant analysis with reference to an extensive fingerprint database, permits the detection of any possible similarities with established drugs. In general, “fingerprints” show prominent differences for drugs prescribed for different indications and are similar for drugs with similar indication (Dimpfel 2003). Furthermore, the pattern of EEG changes in the rat is a useful tool in predicting possible changes in the EEG power spectrum in humans.
# Five intraperitoneal doses (30 mg/kg, 100 mg/kg, 300 mg/kg, 600 mg/kg and 1000 mg/kg body weight) of sodium (R)-3-hydroxybutyrate (BHB) were investigated using the “Tele-Stereo-EEG” animal model consisting of continuous recording of intracerebral field potentials in the freely moving rat. No effects could be measured using 1 ml/kg of a solution containing 20 mM of Na-bicarbonate (pH 8.4 or pH 12.5) for control purposes. […] Most marked changes were observed within the alpha2 range.
# Adult Fisher rats (4-6 month of age and day—night converted, weight about 400 g) were implanted with 4 bipolar concentric steel electrodes using a stereotactic surgical procedure (Paxinos and Watson, 1982). All four electrodes were placed 3 mm lateral within the left hemisphere. Anterior coordinates were 12.2, 5.7, 9.7 and 3.7 mm for frontal cortex, hippocampus, striatum and reticular formation, respectively. A baseplate carrying the electrodes and a 5-pin-plug was fixed to the skull by dental cement attached to 3 steel screws fixed into the skull. Animals were given two weeks for recovery from the surgical procedure. Experiments were performed in compliance with the German Health Authority Guidelines and with local authority approval. EEG signals were recorded from frontal cortex, hippocampus, striatum and reticular formation and were amplified and processed as described previously (see Dimpfel et al., 1986). After automatic artefact rejection, signals were collected in sweeps of 4 s duration and submitted to Fast Fourier transformation. The resulting electrical power spectra were divided into 6 frequency ranges: delta (0.8-4.5 Hz); theta (4.75-6.75 Hz); alpha1 (7.00-9.50 Hz); alpha2 (9.75-12.50 Hz); beta (12.75-18.50 Hz); beta2 (18.75-35.00 Hz). […] In an off-line procedure spectra were averaged to give 15 minute or longer periods for further statistical analysis.
# Five dosages of BHB (30, 100, 300, 600 and 1000 mg/kg body weight) (supplied by Solvias AG, CH 4002 Basel, Switzerland, batch No: SO-1058.047.1.120) and a vehicle control (0.9% w/v saline) were administered intraperitoneously to a group of 12 animals using a crossover design with at least 3 drug holidays in between the applications. Additional controls consisted of a 1 ml/kg of a solution containing 20 mM of Na-bicarbonate (adjusted to 8.4 and pH 12.5 obtained by titration with 1N NaOH) were tested to ascertain possible effects due to the alkaline pH of the BHB solution. After a pre-drug period of 45 minutes for baseline recording, drug effects were observed continuously for 300 minutes. Changes of electrical power (μV2W) are expressed as % of the 45 min. pre-drug values. Multivariate statistics were calculated according to Ahrens and Lauter (1974).
# [2] = test system: EEG frequency bands (delta, theta activity); settings: cited from earlier work
# [3] = BHB 100 mg/kg i.p. single dose, rat
# [4] = BHB 300 mg/kg i.p. single dose, rat
smiles,measurement,setting,value
"C[C@@H](O)CC(=O)[O-].[Na+] [BHB, sodium (R)-3-hydroxybutyrate]",discriminant analysis of EEG fingerprint (24 variables),"[1]; 6 frequency ranges, 4 brain areas, one time period",close proximity to paroxetine and tramadol
same,effects on EEG frequencies relative to the saline control,"[1]; BHB 30 mg/kg body weight i.p. single dose, rat",no statistically significant effects
same,duration of EEG effects,[1]; [3],1 to 2 h
same,statistical significance of EEG changes,[1]; [3],not statistically significant
same,"EEG frequency changes (electrical power, % of pre-drug values)","[1]; BHB 100 mg/kg i.p. single dose, rat, all regions, mainly alpha2, less delta",decrease of electrical power
same,"EEG frequency changes (electrical power, % of pre-drug values)",[1]; [4],decreases in alpha2 power throughout all brain regions
same,duration of pattern of EEG changes,[1]; [4],two
same,statistical significance of EEG changes,"[1]; BHB 300 mg/kg i.p. single dose, rat, by brain region","statistically significant for the frontal cortex, hippocampus and reticular formation, but not for the striatum"
same,duration of EEG effects,"[1]; BHB 600 mg/kg i.p. single dose, rat, generally, except reticular formation",2 h
same,statistical significance of EEG changes,"[1]; BHB 600 mg/kg i.p. single dose, rat, including first hour within striatum",statistically highly significant
same,duration of decreases of power in the reticular formation,"[1]; BHB 600 mg/kg i.p. single dose, rat",persisted throughout the third hour
same,"EEG frequency changes (electrical power, % of pre-drug values)","[1]; BHB 1000 mg/kg i.p. single dose, rat",more prominent decreases of power lasting into the third hour
same,statistical significance of EEG changes,"[1]; BHB 1000 mg/kg i.p. single dose, rat, even 5th hour within reticular formation",statistically highly significant
same,duration of decreases of power in the reticular formation,"[1]; BHB 1000 mg/kg i.p. single dose, rat, total experimental time",5 h
same,similarity of EEG electrical fingerprint to reference drugs,"[1]; BHB at a lower dosage, vs galanthamine 3 mg/kg and paroxetine 2 mg/kg",similarity to the “electrical fingerprints” of the acetylcholine esterase inhibitor galanthamine and also the antidepressant paroxetine
same,statistical significance of EEG changes,"[1]; BHB dose levels of 300-1000 mg/kg i.p., rat",statistically highly significant
same,similarity of EEG profile to reference drugs,"[1]; higher dosages of BHB, vs tramadol 10 mg/kg",reminiscent of the effects as observed after the administration of tramadol
Clc1cccc(Cl)c1N=C1NCCN1 [clonidine],change of theta activity,[2]; drug down regulating the norepinephrine system (presynaptic adrenergic alpha2 receptor),increases
CN1[C@@H]2C[C@@H](OC(=O)[C@H](CO)c3ccccc3)C[C@H]1[C@@H]1O[C@@H]12 [scopolamine],change of delta activity,[2]; drugs affecting the cholinergic system,increase of power
